Consider 12 compounds from US9102701B2, “17-hydroxy-17-pentafluoroethyl-estra-4,9(10)-diene-11-ethynylphenyl derivatives, methods for the production thereof and use thereof for treating diseases” (Bayer Intellectual Property GmbH, priority 2009, dated 2015).

pIC50: −log10 of the molar value. Where two headings read alike, the source gives them in different places.

Test [1] has as its target T1, human progesterone receptor B (Homo sapiens, UniProt P06401).
T1 construct: expressed in transfected cells; host or cells: SK-N-MC human neuroblastoma cells, stably transfected with pRChPR-B-neo and pMMTV-LUC
T1 sequence (P06401 1-933): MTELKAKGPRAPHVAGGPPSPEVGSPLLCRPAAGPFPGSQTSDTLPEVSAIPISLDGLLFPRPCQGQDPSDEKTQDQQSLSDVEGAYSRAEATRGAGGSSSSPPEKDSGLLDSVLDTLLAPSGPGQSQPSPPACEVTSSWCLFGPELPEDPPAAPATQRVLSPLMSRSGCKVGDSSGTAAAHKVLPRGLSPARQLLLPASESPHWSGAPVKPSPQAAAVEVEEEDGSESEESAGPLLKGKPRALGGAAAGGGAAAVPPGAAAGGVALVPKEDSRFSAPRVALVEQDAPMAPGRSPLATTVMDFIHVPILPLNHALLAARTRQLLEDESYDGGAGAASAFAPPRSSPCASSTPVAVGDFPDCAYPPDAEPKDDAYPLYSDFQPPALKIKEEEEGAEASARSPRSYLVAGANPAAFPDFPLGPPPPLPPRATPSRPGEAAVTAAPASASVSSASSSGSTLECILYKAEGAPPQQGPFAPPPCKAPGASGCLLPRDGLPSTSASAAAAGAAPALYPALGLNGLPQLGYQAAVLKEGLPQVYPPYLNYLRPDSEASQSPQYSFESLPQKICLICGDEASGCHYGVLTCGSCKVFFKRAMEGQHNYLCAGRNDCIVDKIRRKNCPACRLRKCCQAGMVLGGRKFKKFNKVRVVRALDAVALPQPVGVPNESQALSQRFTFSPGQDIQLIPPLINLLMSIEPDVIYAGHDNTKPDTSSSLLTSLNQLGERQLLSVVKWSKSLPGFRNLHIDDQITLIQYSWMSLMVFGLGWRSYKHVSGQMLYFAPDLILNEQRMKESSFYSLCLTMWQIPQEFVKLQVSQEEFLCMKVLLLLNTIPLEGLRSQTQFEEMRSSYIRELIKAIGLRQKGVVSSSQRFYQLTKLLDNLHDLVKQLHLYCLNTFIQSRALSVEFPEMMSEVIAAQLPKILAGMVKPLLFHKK
The experiment in a line: Progesterone receptor-antagonistic action in stably transfected SK-N-MC cells, PR-B, MMTV-LUC reporter. Type of test: cell-based. On the procedure:
(§1) Determination of Progesterone Receptor-Antagonistic Action in Stable Transfectants of Human Neuroblastoma Cells (SK-N-MC Cells) with the Human Progesterone a or Progesterone B Receptor and an MN-LUC Reporter Construct
(§2) SK-N-MC cells (human neuroblastoma cells) which have been stably transfected with plasmids expressing the human progesterone receptor B (pRChPR-B-neo) or the human progesterone receptor A (pRChPR-A-neo) and a reporter construct (pMMTV-LUC) were incubated for 24 hours either in the absence (negative control) or in the presence of ascending amounts of the particular test compound (0.01 nmol/l, 0.1 nmol/l, 1 nmol/l, 10 nmol/l, 100 nmol/l and […]), in order to determine the agonistic efficacy. As a positive control of the reporter gene induction, the cells were treated with the synthetic gestagen promegestone (0.01 nmol/l, 0.1 nmol/l, 1 nmol/l, 10 nmol/l, 100 nmol/l and […]). To determine the antagonistic activity, the cells were treated with 0.1 nmol/l promegestone and additionally with ascending amounts of the particular test compound (0.01 nmol/l, 0.1 nmol/l, 1 nmol/l, 10 nmol/l, 100 nmol/l and […]). The activity of the reporter gene LUC (LUC=luciferase) was determined in the cell lysates and measured as RLU (relative light units). All measurements are reported as % efficacy and as EC50 and IC50 concentrations.

Test [2] deals with T2, human progesterone receptor A (Homo sapiens, UniProt P06401).
T2 construct: expressed in transfected cells; host or cells: SK-N-MC human neuroblastoma cells, stably transfected with pRChPR-A-neo and pMMTV-LUC
T2 sequence (P06401 1-769 isoform P06401-2): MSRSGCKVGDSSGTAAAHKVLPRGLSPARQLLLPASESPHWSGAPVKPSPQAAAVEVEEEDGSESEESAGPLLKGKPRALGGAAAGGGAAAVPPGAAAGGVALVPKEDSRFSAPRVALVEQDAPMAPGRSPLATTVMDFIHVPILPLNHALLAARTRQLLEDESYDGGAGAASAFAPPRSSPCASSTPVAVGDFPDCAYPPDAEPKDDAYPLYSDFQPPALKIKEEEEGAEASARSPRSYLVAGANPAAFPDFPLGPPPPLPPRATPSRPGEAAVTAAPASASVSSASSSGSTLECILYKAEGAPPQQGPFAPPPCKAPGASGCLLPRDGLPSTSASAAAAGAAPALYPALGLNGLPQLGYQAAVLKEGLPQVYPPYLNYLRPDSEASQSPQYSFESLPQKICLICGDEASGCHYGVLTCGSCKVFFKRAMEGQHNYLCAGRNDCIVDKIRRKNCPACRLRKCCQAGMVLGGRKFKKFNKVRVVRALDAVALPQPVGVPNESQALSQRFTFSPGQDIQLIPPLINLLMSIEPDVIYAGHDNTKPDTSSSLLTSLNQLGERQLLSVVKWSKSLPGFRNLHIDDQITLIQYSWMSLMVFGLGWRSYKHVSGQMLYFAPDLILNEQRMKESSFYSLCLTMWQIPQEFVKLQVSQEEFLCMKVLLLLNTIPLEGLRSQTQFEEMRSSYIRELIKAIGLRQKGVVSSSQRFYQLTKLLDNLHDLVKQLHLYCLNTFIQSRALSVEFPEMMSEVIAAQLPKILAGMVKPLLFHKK
The experiment in a line: Progesterone receptor-antagonistic action in stably transfected SK-N-MC cells, PR-A, MMTV-LUC reporter. Type of test: cell-based. On the procedure:
as §1, §2

In general, pIC50 refers to −log10 of the IC50, conventionally taken in molar units. As for `COC(=O)c1cccc(C=CC#Cc2ccc([C@H]3C[C@@]4(C)C(CC[C@@]4(O)C(F)(F)C(F)(F)F)C4CCC5=CC(=O)CCC5=C43)cc2)c1` (mixture of isomers) [Example 12, 3-{(E/Z)-4-[4-((8S,11R,13S,14S,17S)-17-hydroxy-13-methyl-3-oxo-17-pentafluoroethyl-2,3,6,7,8,11,12,13,14,15,16,17-dodecahydro-1H-cyclopenta[a]phenanthren-1′-yl)phenyl]but-1-en-3-ynyl}benzoic acid methyl ester], the negative-log IC50 (pIC50) in test [1] (read-out: IC50 PR-B) is 8.70; in test [2] (read-out: IC50 PR-A), 9.00.
The like results for `CC(C)CO/N=C/C#Cc1ccc([C@H]2C[C@@]3(C)C(CC[C@@]3(O)C(F)(F)C(F)(F)F)C3CCC4=CC(=O)CCC4=C32)cc1` (mixture of isomers) [Example 26, (E/Z)-[4-((8S,11R,13S,14S,17S)-17-hydroxy-13-methyl-3-oxo-17-pentafluoroethyl-2,3,6,7,8,11,12,13,14,15,16,17-dodecahydro-1H-cyclopenta[a]phenanthren-1′-yl)phenyl]propynal O-isobutyl oxime] were, in that order, 10.10 and 10.10.
`C[C@]12C[C@H](c3ccc(C#CC=NOCc4ccc(Cl)c(Cl)c4)cc3)C3=C4CCC(=O)C=C4CCC3C1CC[C@@]2(O)C(F)(F)C(F)(F)F` (mixture of isomers) [Example 27, (E/Z)-[4-((8S,11R,13S,14S,17S)-17-hydroxy-13-methyl-3-oxo-17-pentafluoroethyl-2,3,6,7,8,11,12,13,14,15,16,17-dodecahydro-1H-cyclopenta[a]phenanthren-1′-yl)phenyl]propynal O-(3,4-dichlorobenzyl) oxime]: the pIC50 is 8.70 in test [1] (read-out: IC50 PR-B) and 9.01 in test [2] (read-out: IC50 PR-A).
Regarding `COC(=O)C#Cc1ccc([C@H]2C[C@@]3(C)C(CC[C@@]3(O)C(F)(F)C(F)(F)F)C3CCC4=CC(=O)CCC4=C32)cc1` (stereo partly drawn) [Example 3, [4-((8S,11R,13S,14S,17S)-17-hydroxy-13-methyl-3-oxo-17-pentafluoroethyl-2,3,6,7,8,11,12,13,14,15,16,17-dodecahydro-1H-cyclopenta[a]phenanthren-1′-yl)phenyl]propynoic acid methyl ester], the pIC50 was 8.92 in test [1] and 8.74 in test [2].
Consider `CCOC(=O)/C=C/C#Cc1ccc([C@H]2C[C@@]3(C)C(CC[C@@]3(O)C(F)(F)C(F)(F)F)C3CCC4=CC(=O)CCC4=C32)cc1` (stereo partly drawn) [Example 6, (E)-5-[4-((8S,11R,13S,14S,17S)-17-hydroxy-13-methyl-3-oxo-17-pentafluoroethyl-2,3,6,7,8,11,12,13,14,15,16,17-dodecahydro-1H-cyclopenta[a]phenanthren-1′-yl)phenyl]pent-2-en-4-ynoic acid ethyl ester], for which the values for the pIC50 in test [1] (read-out: IC50 PR-B) and in test [2] (read-out: IC50 PR-A) were 7.92 and 7.89, respectively.
The like results for `CCOC(=O)C=CC=CC#Cc1ccc([C@H]2C[C@@]3(C)C(CC[C@@]3(O)C(F)(F)C(F)(F)F)C3CCC4=CC(=O)CCC4=C32)cc1` (stereo partly drawn) [Example 7, 7-(2E/Z,4E/Z)-[4-((8S,11R,13S,14S,17S)-17-hydroxy-13-methyl-3-oxo-17-pentafluoroethyl-2,3,6,7,8,11,12,13,14,15,16,17-dodecahydro-1H-cyclopenta[a]phenanthren-1′-yl)phenyl]hepta-2,4-dien-6-ynoic acid ethyl ester] were, in that order, 9.05 and 9.10.
The like results for `CC(C)(C)OC(=O)COCC#Cc1ccc([C@H]2C[C@@]3(C)[C@@H](CC[C@@]3(O)C(F)(F)C(F)(F)F)[C@@H]3CCC4=CC(=O)CCC4=C32)cc1` [Example 8, {3-[4-((8S,11R,13S,14S,17S)-17-hydroxy-13-methyl-3-oxo-17-pentafluoroethyl-2,3,6,7,8,11,12,13,14,15,16,17-dodecahydro-1H-cyclopenta[a]phenanthren-11-yl)phenyl]prop-2-ynyloxy}acetic acid tert-butyl ester] were, in that order, 9.39 and 9.49.
As to `COC(=O)COCC#Cc1ccc([C@H]2C[C@@]3(C)[C@@H](CC[C@@]3(O)C(F)(F)C(F)(F)F)[C@@H]3CCC4=CC(=O)CCC4=C32)cc1` [Example 9, {3-[4-((8S,11R,13S,14S,17S)-17-hydroxy-13-methyl-3-oxo-17-pentafluoroethyl-2,3,6,7,8,11,12,13,14,15,16,17-dodecahydro-1H-cyclopenta[a]phenanthren-11-yl)phenyl]prop-2-ynyloxy}acetic acid methyl ester], the pIC50 in test [1] (read-out: IC50 PR-B) was 8.00; in test [2] (read-out: IC50 PR-A), 8.09.
Taken in the same sequence, the figures for `C[C@]12C[C@H](c3ccc(C#CCOCC(=O)O)cc3)C3=C4CCC(=O)C=C4CCC3C1CC[C@@]2(O)C(F)(F)C(F)(F)F` (stereo partly drawn) [Example 10, {3-[4-((8S,11R,13S,14S,17S)-17-hydroxy-13-methyl-3-oxo-17-pentafluoroethyl-2,3,6,7,8,11,12,13,14,15,16,17-dodecahydro-1H-cyclopenta[a]phenanthren-1′-yl)phenyl]prop-2-ynyloxy}acetic acid] were 8.00 and 8.05.
Consider `C[C@]12C[C@H](c3ccc(C#CCOCC#N)cc3)C3=C4CCC(=O)C=C4CCC3C1CC[C@@]2(O)C(F)(F)C(F)(F)F` (stereo partly drawn) [Example 14, {3-[4-((8S,11R,13S,14S,17S)-17-hydroxy-13-methyl-3-oxo-17-pentafluoroethyl-2,3,6,7,8,11,12,13,14,15,16,17-dodecahydro-1H-cyclopenta[a]phenanthren-1′-yl)phenyl]prop-2-ynyloxy}acetonitrile], for which the negative logarithm of the IC50 (pIC50) in test [1] (read-out: IC50 PR-B) and in test [2] (read-out: IC50 PR-A) was 10.00 in each case.
For `COC(=O)c1ccc(C#Cc2ccc([C@H]3C[C@@]4(C)[C@@H](CC[C@@]4(O)C(F)(F)C(F)(F)F)[C@@H]4CCC5=CC(=O)CCC5=C43)cc2)cc1` [Example 15, 4-[4-((8S,11R,13S,14S,17S)-17-hydroxy-13-methyl-3-oxo-17-pentafluoroethyl-2,3,6,7,8,11,12,13,14,15,16,17-dodecahydro-1H-cyclopenta[a]phenanthren-11-yl)phenylethynyl]benzoic acid methyl ester], the negative logarithm of the IC50 (pIC50) was 9.00 in test [1] (read-out: IC50 PR-B) and 9.15 in test [2] (read-out: IC50 PR-A).
The like results for `C[C@]12C[C@H](c3ccc(C#CCOCc4nnn[nH]4)cc3)C3=C4CCC(=O)C=C4CC[C@H]3[C@@H]1CC[C@@]2(O)C(F)(F)C(F)(F)F` [Example 18, (8S,11R,13S,14S,17S)-17-hydroxy-13-methyl-17-pentafluoroethyl-11-{4-[3-(1H-tetrazol-5-ylmethoxy)prop-1-yn-1-yl]phenyl}-1,2,6,7,8,11,12,13,14,15,16,17-dodecahydrocyclopenta[a]phenanthren-3-one] were, in that order, 8.30 and 8.10.
